What was measured:
Details in all cases: 48 h
[1] = system: CU-ACC1; assay: AC50 viability; higher = less potent
In short: (§1)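 Three adrenocortical carcinoma cell lines were exposed for 48 h to library compounds at 11 concentrations in 1,536-well plates, then read by CellTiter-Glo luminescence. Signals were scaled per plate against vehicle and empty-well controls. From fitted concentration-response curves of inhibitory or non-responding classes alone, AC50 and area under the curve were obtained.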

[2] = system: CU-ACC2; assay: AC50 viability; higher = less potent
In short: as §1

[3] = system: NCI-H295R; assay: AC50 viability; higher = less potent
In short: as §1

[4] = system: CU-ACC1; assay: area under concentration-response curve (viability) (AUC (a.u.)); higher = less active
In short: as §1

[5] = system: CU-ACC2; assay: as above
In short: as §1

[6] = system: NCI-H295R; assay: as above
In short: as §1

How did the AC50 viability [1] turn out when C[C@H]1COCCN1c1cc(C2([S+](=O)([O-])C3CC3)CC2)nc(-c2ccc(NC(=S)NCCO)cc2)n1 was run?
Its AC50 viability is 0.295 µM.

What about the AC50 viability [2] of the same compound?
Its AC50 viability is 0.525 µM.

And the AC50 viability [3]?
The AC50 viability was 0.661 µM.

What about the “area under concentration-response curve” value [4] of the same compound?
Its value is 325.

And the “area under concentration-response curve” value [5]?
The value was 394.

What about the “area under concentration-response curve” value [6] of the same compound?
The value was 366.

For CC(=O)[C@]1(O)Cc2c(O)c3c(c(O)c2[C@@H](O[C@H]2C[C@H](N)[C@H](O)[C@H](C)O2)C1)C(=O)c1ccccc1C3=O, which AC50 viability [1] is on record?
The AC50 viability was 20.9 µM.

What about the AC50 viability [2] of the same compound?
Its AC50 viability is 20.9 µM.

What about the AC50 viability [3] of the same compound?
Its AC50 viability is 14.8 µM.

And the “area under concentration-response curve” value [4]?
Its value is 428.

And the “area under concentration-response curve” value [5]?
The value was 485.

What about the “area under concentration-response curve” value [6] of the same compound?
The value was 377.

C=CC(=O)Nc1ccc2ncnc(Nc3ccc(OCc4cccc(F)c4)c(Cl)c3)c2c1 was tested. Which AC50 viability [1] did it give?
The AC50 viability was 20.9 µM.

And the AC50 viability [2]?
Its AC50 viability is 10.5 µM.

What about the AC50 viability [3] of the same compound?
Its AC50 viability is 10.5 µM.

And the “area under concentration-response curve” value [4]?
The value was 334.

What about the “area under concentration-response curve” value [5] of the same compound?
Its value is 534.

What about the “area under concentration-response curve” value [6] of the same compound?
The value was 510.

For COc1cc2nc(N3CCCN(C)CC3)nc(NC3CCN(Cc4ccccc4)CC3)c2cc1OC, which AC50 viability [1] is on record?
The AC50 viability was 13.2 µM.

What about the AC50 viability [2] of the same compound?
Its AC50 viability is 8.33 µM.

What about the AC50 viability [3] of the same compound?
The AC50 viability was 9.34 µM.

What about the “area under concentration-response curve” value [4] of the same compound?
Its value is 362.

What about the “area under concentration-response curve” value [5] of the same compound?
Its value is 535.

What about the “area under concentration-response curve” value [6] of the same compound?
The value was 494.

Which AC50 viability [1] does the source give for CCC1=C2C=C(OC(=O)N3CCC(CC3)N4CCCCC4)C=CC2=NC\5=C1CN6C(=O)\C7=C(/C=C56)[C@@](O)(CC)C(=O)OC7 here?
Its AC50 viability is 13.2 µM.

What about the AC50 viability [2] of the same compound?
Its AC50 viability is 2.95 µM.

What about the AC50 viability [3] of the same compound?
Its AC50 viability is 13.2 µM.

And the “area under concentration-response curve” value [4]?
Its value is 382.

And the “area under concentration-response curve” value [5]?
The value was 426.

And the “area under concentration-response curve” value [6]?
The value was 443.

What does the source list for Cc1cc(O)c(-c2ccc([C@@H](C)CN(C)C)cc2)c2c1[nH]c(=O)c1sccc12?
AC50 viability [1]: 0.235 µM; AC50 viability [2]: 0.166 µM; AC50 viability [3]: 0.295 µM; area under concentration-response curve [4]: 311; area under concentration-response curve [5]: 346; area under concentration-response curve [6]: 305

Which AC50 viability [1] does the source give for O=C(NO)c1cnc(NC2(c3ccccc3)CC2)nc1 here?
Its AC50 viability is 11.8 µM.

What about the AC50 viability [2] of the same compound?
Its AC50 viability is 16.6 µM.

And the AC50 viability [3]?
Its AC50 viability is 5.25 µM.

What about the “area under concentration-response curve” value [4] of the same compound?
The value was 423.

And the “area under concentration-response curve” value [5]?
The value was 499.

And the “area under concentration-response curve” value [6]?
The value was 465.

How did the AC50 viability [1] turn out when CCNCCc1ccc(CN(CC)c2cc(OC)ccc2[C@@H]2CCc3cc(O)ccc3C2)cc1 was run?
Its AC50 viability is 9.34 µM.

And the AC50 viability [2]?
The AC50 viability was 7.42 µM.

And the AC50 viability [3]?
The AC50 viability was 7.42 µM.

What about the “area under concentration-response curve” value [4] of the same compound?
The value was 447.

What about the “area under concentration-response curve” value [5] of the same compound?
Its value is 515.

And the “area under concentration-response curve” value [6]?
The value was 440.

With COCCOc1nc(-c2ccc(Cl)c(Cl)c2)n(-c2ccc(NC(=O)CCl)cc2)n1 as the compound, how does the AC50 viability [1] read?
The AC50 viability was 5.25 µM.

And the AC50 viability [2]?
The AC50 viability was 3.72 µM.

And the AC50 viability [3]?
Its AC50 viability is 3.72 µM.

And the “area under concentration-response curve” value [4]?
The value was 383.

What about the “area under concentration-response curve” value [5] of the same compound?
Its value is 415.

What about the “area under concentration-response curve” value [6] of the same compound?
The value was 391.

For O=C(CCCCCCC(=O)N/N=C/c1ccc(N(c2ccccc2)c2ccccc2)cc1)NO, which AC50 viability [1] is on record?
Its AC50 viability is 6.61 µM.

What about the AC50 viability [2] of the same compound?
The AC50 viability was 10.5 µM.

And the AC50 viability [3]?
Its AC50 viability is 1.18 µM.

And the “area under concentration-response curve” value [4]?
The value was 381.

What about the “area under concentration-response curve” value [5] of the same compound?
Its value is 371.

What about the “area under concentration-response curve” value [6] of the same compound?
Its value is 382.

Which AC50 viability [1] does the source give for CC1=NN=C(C[C@@H]2\C=C(C3=CC=C(Cl)C=C3)/C4=CC=CC=C4[N]5C(=NN=C25)C)O1 here?
The AC50 viability was 5.9 µM.

What about the AC50 viability [2] of the same compound?
The AC50 viability was 3.32 µM.

What about the AC50 viability [3] of the same compound?
The AC50 viability was 5.25 µM.

What about the “area under concentration-response curve” value [4] of the same compound?
The value was 433.

What about the “area under concentration-response curve” value [5] of the same compound?
The value was 447.

And the “area under concentration-response curve” value [6]?
The value was 368.

COc1cccc2c(NCc3ccccc3)nc(-n3c(N)nc4ccccc43)nc12 was tested. Which AC50 viability [1] did it give?
The AC50 viability was 3.32 µM.

And the AC50 viability [2]?
Its AC50 viability is 3.72 µM.

And the AC50 viability [3]?
The AC50 viability was 3.32 µM.

And the “area under concentration-response curve” value [4]?
Its value is 373.

And the “area under concentration-response curve” value [5]?
Its value is 450.

And the “area under concentration-response curve” value [6]?
Its value is 402.

How did the AC50 viability [1] turn out when CC(C)(C)c1cnc(CSc2cnc(NC(=O)C3CCNCC3)s2)o1 was run?
The AC50 viability was 2.63 µM.

And the AC50 viability [2]?
The AC50 viability was 1.48 µM.

What about the AC50 viability [3] of the same compound?
Its AC50 viability is 7.42 µM.

What about the “area under concentration-response curve” value [4] of the same compound?
Its value is 386.

And the “area under concentration-response curve” value [5]?
The value was 352.

And the “area under concentration-response curve” value [6]?
The value was 387.

Which AC50 viability [1] does the source give for COCCOc1ccc2c(c1)ncn2-c1ccc2cccc(N3CCC(N)CC3)c2n1 here?
Its AC50 viability is 16.6 µM.

What about the AC50 viability [2] of the same compound?
Its AC50 viability is 10.5 µM.

What about the AC50 viability [3] of the same compound?
Its AC50 viability is 6.61 µM.

What about the “area under concentration-response curve” value [4] of the same compound?
Its value is 409.

What about the “area under concentration-response curve” value [5] of the same compound?
The value was 370.

And the “area under concentration-response curve” value [6]?
Its value is 420.

How did the AC50 viability [1] turn out when C/C=C1\NC(=O)[C@H]2CSSCC/C=C\[C@H](CC(=O)N[C@H](C(C)C)C(=O)N2)OC(=O)[C@H](C(C)C)NC1=O was run?
Its AC50 viability is 0.00742 µM.

What about the AC50 viability [2] of the same compound?
The AC50 viability was 0.0235 µM.

And the AC50 viability [3]?
The AC50 viability was 0.118 µM.

What about the “area under concentration-response curve” value [4] of the same compound?
Its value is 235.

And the “area under concentration-response curve” value [5]?
The value was 224.

What about the “area under concentration-response curve” value [6] of the same compound?
Its value is 293.

Which AC50 viability [1] does the source give for CCOC1=CC=CC=C1N\2C(=O)C3=C(C=CC=C3)\N=C2C(C)N4CCN(CC4)C(=O)COC5=CC=C(Cl)C=C5 (stereo not given) here?
The AC50 viability was 0.934 µM.

And the AC50 viability [2]?
Its AC50 viability is 2.95 µM.

And the AC50 viability [3]?
The AC50 viability was 5.9 µM.

What about the “area under concentration-response curve” value [4] of the same compound?
The value was 373.

And the “area under concentration-response curve” value [5]?
The value was 509.

What about the “area under concentration-response curve” value [6] of the same compound?
The value was 448.

C[C@@H]1C[C@H]2[C@@H]3\C=C(C)/C4=C/C5=C(C[C@]4(C)[C@H]3[C@@H](O)C[C@]2(C)[C@@]1(O)C(=O)CO)C=N[N]5C6=CC=CC=C6 was tested. Which AC50 viability [1] did it give?
The AC50 viability was 26.3 µM.

What about the AC50 viability [2] of the same compound?
The AC50 viability was 23.5 µM.

What about the AC50 viability [3] of the same compound?
Its AC50 viability is 11.8 µM.

What about the “area under concentration-response curve” value [4] of the same compound?
Its value is 435.

And the “area under concentration-response curve” value [5]?
The value was 563.

What about the “area under concentration-response curve” value [6] of the same compound?
Its value is 474.

How did the AC50 viability [1] turn out when CC[C@@]1(O)C(=O)OC/C2=C1/C=C3\N(CC4=C5[C@@H](N)CCC6=C5C(=CC(=C6C)F)N=C34)C2=O was run?
Its AC50 viability is 2.09 µM.

What about the AC50 viability [2] of the same compound?
The AC50 viability was 2.35 µM.

What about the AC50 viability [3] of the same compound?
Its AC50 viability is 3.72 µM.

What about the “area under concentration-response curve” value [4] of the same compound?
The value was 388.

What about the “area under concentration-response curve” value [5] of the same compound?
The value was 486.

What about the “area under concentration-response curve” value [6] of the same compound?
The value was 437.

Which AC50 viability [1] does the source give for CN(C)CCN(C)C(=O)c1ccc(NC(=O)Nc2ccc(-c3nc(N4CCOCC4)c4ccn(CC(F)(F)F)c4n3)cc2)cc1 here?
Its AC50 viability is 4.68 µM.

What about the AC50 viability [2] of the same compound?
Its AC50 viability is 3.72 µM.

What about the AC50 viability [3] of the same compound?
The AC50 viability was 5.9 µM.

What about the “area under concentration-response curve” value [4] of the same compound?
The value was 307.

What about the “area under concentration-response curve” value [5] of the same compound?
The value was 307.

What about the “area under concentration-response curve” value [6] of the same compound?
The value was 354.

For O=C(/C=C/c1cccc([S+](=O)([O-])Nc2ccccc2)c1)NO, which AC50 viability [1] is on record?
The AC50 viability was 3.72 µM.

What about the AC50 viability [2] of the same compound?
Its AC50 viability is 5.25 µM.

And the AC50 viability [3]?
The AC50 viability was 3.72 µM.

What about the “area under concentration-response curve” value [4] of the same compound?
The value was 362.

And the “area under concentration-response curve” value [5]?
The value was 429.

What about the “area under concentration-response curve” value [6] of the same compound?
The value was 404.

Source: the supplement of paper PMC10949913
